Source: paper PMC3934957, “A Porphodimethene Chemical Inhibitor of Uroporphyrinogen Decarboxylase” (PLoS ONE, 2014)

Target: T1, uroporphyrinogen decarboxylase (UROD) (Homo sapiens, UniProt P06132)
T1 construct: recombinant UROD (GenBank BC001778) with 5'-histidine tag and thrombin cleavage site
T1 sequence (P06132 1-367): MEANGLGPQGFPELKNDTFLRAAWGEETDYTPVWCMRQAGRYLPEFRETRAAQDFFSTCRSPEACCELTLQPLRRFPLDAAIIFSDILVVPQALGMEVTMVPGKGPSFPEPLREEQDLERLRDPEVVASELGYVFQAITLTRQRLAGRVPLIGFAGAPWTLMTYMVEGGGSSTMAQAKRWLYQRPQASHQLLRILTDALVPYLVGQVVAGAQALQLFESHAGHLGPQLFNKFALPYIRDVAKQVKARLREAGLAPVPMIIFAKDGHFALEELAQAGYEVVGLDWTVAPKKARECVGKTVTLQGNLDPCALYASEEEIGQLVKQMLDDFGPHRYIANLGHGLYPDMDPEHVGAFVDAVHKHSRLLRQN
Assay: Recombinant UROD enzyme assay with RP-HPLC fluorescence detection of uroporphyrin/coproporphyrin ([…] UROD, […] uroporphyrinogen)
Assay type: biochemical

- IC50: 9.9 µM
Compound: CC1=C(CCC(=O)O)C2=Cc3[nH]c(c(C)c3CCC(=O)O)C(C)(C)C3=NC(=Cc4[nH]c(c(C)c4CCC(=O)O)C(C)(C)C1=N2)C(CCC(=O)O)=C3C [PI-16]
